The numbers were not newly measured in US20220142214A1, “SYNERGISTIC COMPOSITION OF FOOD-BASED AND ORGANIC NUTRIENTS AND METHODS FOR USE AND MANUFACTURE” (priority 2020, published 2022), which cites them from elsewhere.

Data set [1] has as its system B16-BL6 cells. The note with it: for tumor growth: intraperitoneal administration at time of i.m. injection of B16-BL6 cells.
Data set [2] concerns B16-BL6 cells. The note with it: dose-dependent.
The mark [3] stands for this setting: intraperitoneal administration, syngeneic mice.

Read-outs that look alike come from different tables or passages of the source.

As to `O=C(O[C@@H]1Cc2c(O)cc(O)cc2O[C@@H]1c1cc(O)c(O)c(O)c1)c1cc(O)c(O)c(O)c1` [EGCG, Epigallocathechin-3-gallate], in the data set with B16-BL6 cells [1], the tumor growth entry is “significant, dose-dependent delay of tumor growth”. Besides, the toxicity entry with B16-BL6 cells [1] (setting [3]) is “without toxicity”.

Take `O=c1cc(-c2ccc(O)cc2)oc2cc(O)cc(O)c12` [apigenin]: the “number of B16-BL6 colonies in the lungs” value with B16-BL6 cells [2] is reported as “significantly decreased”. Further, the tumor growth result in the data set on B16-BL6 cells [1] is on record as “significant, dose-dependent delay of tumor growth”. Moreover, the toxicity result with B16-BL6 cells [1] (setting [3]) is “without toxicity”.

As for `O=c1c(O)c(-c2ccc(O)c(O)c2)oc2cc(O)cc(O)c12` [quercetin], in the data set on B16-BL6 cells [2], the “number of B16-BL6 colonies in the lungs” value is “significantly decreased”. Also, in the data set on B16-BL6 cells [1], the tumor growth entry was “significant, dose-dependent delay of tumor growth”. The toxicity result with B16-BL6 cells [1] (mouse, in vivo, ip) was “without toxicity”.

`Oc1ccc(C=Cc2cc(O)cc(O)c2)cc1` [resveratrol]: the tumor growth result with B16-BL6 cells [1] is “significant, dose-dependent delay of tumor growth”. For the same molecule, in the data set on B16-BL6 cells [1] (mouse, in vivo, ip), the toxicity result is recorded as “without toxicity”.

Turning to `CC/C(=C(\c1ccccc1)c1ccc(OCCN(C)C)cc1)c1ccccc1` [tamoxifen], the “number of B16-BL6 colonies in the lungs” value in the data set on B16-BL6 cells [2] is on record as “significantly decreased”. Moreover, the tumor growth result with B16-BL6 cells [1] is “significant, dose-dependent delay of tumor growth”. In addition, the toxicity entry in the data set on B16-BL6 cells [1] (mouse, in vivo, ip) is “without toxicity”.
